Measurements published in ChEMBL document CHEMBL2157933, “The synthesis and antituberculosis activity of 5'-nor carbocyclic uracil derivatives” (Bioorg Med Chem, 2012).
Values after ≈ are worked out from the molar mass of the structure shown. Active and inactive are the calls of the source. No cut-off for these calls is given here.

Key:
[1] = tested on: Mycobacterium tuberculosis; experiment: Antibacterial activity against Mycobacterium tuberculosis H37Rv assessed as growth inhibition at 40 ug/ml by BACTEC method; format: functional; conditions: read-out: GI
[2] = (§1) Cytotoxicity against african green monkey Vero cells after 72 hrs by MTT assay; format: cell-based; conditions: chlorocebus sabaeus, Vero cells
[3] = tested on: Mycobacterium tuberculosis; experiment: Antibacterial activity against Mycobacterium tuberculosis H37Rv by BACTEC method; format: functional
[4] = tested on: Mycobacterium tuberculosis; experiment: Antibacterial activity against Mycobacterium tuberculosis H37Rv under anaerobic condition assessed as growth inhibition at 20 ug/ml after 2 to 3 days by BACTEC method; format: functional, organism-based
[5] = tested on: Mycobacterium tuberculosis; experiment: Antibacterial activity against Mycobacterium tuberculosis H37Rv assessed as growth inhibition at 20 ug/ml by BACTEC method; format: functional; conditions: read-out: GI
[6] = tested on: Mycobacterium tuberculosis; experiment: Antibacterial activity against Mycobacterium tuberculosis H37Rv assessed as growth inhibition at 20 to 40 ug/ml by BACTEC method; format: functional
[7] = tested on: Mycobacterium tuberculosis; experiment: Antibacterial activity against Mycobacterium tuberculosis H37Rv under anaerobic condition assessed as growth inhibition at 20 ug/ml by BACTEC method; format: functional; conditions: read-out: GI
[8] = tested on: Mycobacterium tuberculosis; experiment: Antibacterial activity against Mycobacterium tuberculosis H37Rv under anaerobic condition assessed as growth inhibition at 10 ug/ml by BACTEC method; format: functional; conditions: read-out: GI
Vero = experiment: as §1; format: cell-based; conditions: chlorocebus sabaeus, vero, 72 h
[9] = tested on: Mycobacterium tuberculosis; experiment: Antibacterial activity against Mycobacterium tuberculosis H37Rv assessed as growth inhibition at 10 ug/ml by BACTEC method; format: functional; conditions: read-out: GI
[10] = tested on: Mycobacterium tuberculosis; experiment: Antibacterial activity against Mycobacterium tuberculosis H37Rv under anaerobic condition by BACTEC method; format: functional
[11] = tested on: Mycobacterium tuberculosis; experiment: Antibacterial activity against Mycobacterium tuberculosis H37Rv under anaerobic condition assessed as growth inhibition at 5 ug/ml by BACTEC method; format: functional
[12] = tested on: Mycobacterium tuberculosis; experiment: Antibacterial activity against Mycobacterium tuberculosis H37Rv under anaerobic condition assessed as growth inhibition at 10 to 20 ug/ml by BACTEC method; format: functional
[13] = tested on: Mycobacterium tuberculosis; experiment: Antibacterial activity against Mycobacterium tuberculosis H37Rv under anaerobic condition assessed as growth inhibition at 0.1 ug/ml by BACTEC method; format: functional; conditions: read-out: GI
[14] = tested on: Mycobacterium tuberculosis; experiment: Antibacterial activity against Mycobacterium tuberculosis H37Rv under anaerobic condition assessed as growth inhibition at 2 ug/ml by BACTEC method; format: functional; conditions: read-out: GI
[15] = tested on: Mycobacterium tuberculosis; experiment: Antibacterial activity against Mycobacterium tuberculosis H37Rv under anaerobic condition assessed as growth inhibition at 100 ug/ml by BACTEC method; format: functional; conditions: read-out: GI
[16] = tested on: Mycobacterium tuberculosis; experiment: Antibacterial activity against Mycobacterium tuberculosis H37Rv under anaerobic condition assessed as growth inhibition at 1 ug/ml by BACTEC method; format: functional; conditions: read-out: GI
[17] = tested on: Mycobacterium tuberculosis; experiment: Antibacterial activity against Mycobacterium tuberculosis H37Rv assessed as growth inhibition at 1 ug/ml by BACTEC method; format: functional; conditions: read-out: GI
[18] = Mycobacterium tuberculosis, H37Rv, read-out: MIC99

Structure (SMILES): O=c1ccn(C2C=CC(O)C2)c(=O)[nH]1 (racemic)
- inhibition of growth at 40 µg/mL [1]: 75%
- CC50 at 72 h [2]: > 200 µg/mL
- MIC99 [3]: > 40 µg/mL

Structure (SMILES): Cc1cc(=O)[nH]c(=O)n1C1C=CC(O)C1 (racemic)
- inhibition of growth at 40 µg/mL [1]: 100%
- growth inhibition (GI) [4]: inactive
- CC50 at 72 h [2]: > 200 µg/mL
- MIC99 [3]: 40 µg/mL (≈ 192 µM)

Structure (SMILES): O=c1[nH]c(=O)n(C2C=CC(O)C2)cc1I (racemic)
- inhibition of growth at 40 µg/mL [1]: 100%
- CC50 at 72 h [2]: > 200 µg/mL
- inhibition of growth at 20 µg/mL [5]: 99%
- MIC99 [3]: 20 µg/mL (≈ 62.5 µM)

Structure (SMILES): CCCCCCCCC#Cc1cn(C2C=CC(O)C2)c(=O)[nH]c1=O (racemic)
- inhibition of growth at 40 µg/mL [1]: 100%
- growth inhibition (GI) [4]: inactive
- CC50 at 72 h [2]: > 125 µg/mL
- MIC99 [3]: 40 µg/mL (≈ 121 µM)

Structure (SMILES): CCCCCCCCCCC#Cc1cn(C2C=CC(O)C2)c(=O)[nH]c1=O (racemic)
- growth inhibition (GI) [6]: 99%
- CC50 at 72 h [2]: > 125 µg/mL
- MIC99 [3]: 20 µg/mL (≈ 55.8 µM)

Structure (SMILES): CCCCCCCCCCCCC#Cc1cn(C2C=CC(O)C2)c(=O)[nH]c1=O (racemic)
- inhibition of growth at 20 µg/mL [7]: 100%
- inhibition of growth at 10 µg/mL [8]: 99%
- growth inhibition (GI) [6]: 100%
- CC50 (Vero): 125 µg/mL (≈ 323 µM)
- MIC99 [3]: 10 µg/mL (≈ 25.9 µM)
- inhibition of growth at 10 µg/mL [9]: 99%

Structure (SMILES): CCCCCCCCCCCCC#Cc1cn(C2C=CC(O)C2)c(=O)[nH]c1=O (single isomer, unassigned; (-))
- MIC99 [10, 18]: 5 µg/mL (≈ 12.9 µM)
- CC50 at 72 h [2]: > 100 µg/mL
- growth inhibition (GI) [11]: 99%
- growth inhibition (GI) [12]: 100%

Structure (SMILES): CCCCCCCCCCCCC#Cc1cn(C2C=CC(O)C2)c(=O)[nH]c1=O (stereo in doubt; (+)6)
- MIC99 [10]: 10 µg/mL (≈ 25.9 µM)
- growth inhibition (GI) [11]: 25%

Structure (SMILES): CC[C@@H](CO)NCCN[C@@H](CC)CO [ETHAMBUTOL]
- MIC99 [10, 18]: 5 µg/mL (≈ 24.5 µM)
- inhibition of growth at 5 µg/mL ([11]; Mycobacterium tuberculosis, H37Rv, read-out: GI): 100%

Structure (SMILES): NNC(=O)c1ccncc1 [ISONIAZID]
- MIC99 [10, 18]: 0.1 µg/mL (≈ 0.729 µM)
- inhibition of growth at 0.1 µg/mL [13]: 100%

Structure (SMILES): CC1COc2c(N3CCN(C)CC3)c(F)cc3c(=O)c(C(=O)O)cn1c23 (stereo not given) [OFLOXACIN]
- inhibition of growth at 2 µg/mL [14]: 100%
- MIC99 [10, 18]: 2 µg/mL (≈ 5.53 µM)

Structure (SMILES): NC(=O)c1cnccn1 [PYRAZINAMIDE]
- MIC99 [10, 18]: 100 µg/mL (≈ 812 µM)
- inhibition of growth at 100 µg/mL [15]: 100%

Structure (SMILES): CO[C@H]1/C=C/O[C@@]2(C)Oc3c(C)c(O)c4c(O)c(c(/C=N/N5CCN(C)CC5)c(O)c4c3C2=O)NC(=O)/C(C)=C\C=C\[C@H](C)[C@H](O)[C@@H](C)[C@@H](O)[C@@H](C)[C@H](OC(C)=O)[C@@H]1C [RIFAMPIN]
- inhibition of growth at 1 µg/mL [16]: 100%
- inhibition of growth at 1 µg/mL [17]: 100%
- MIC99 [10, 18]: 1 µg/mL (≈ 1.22 µM)
- CC50 at 72 h [2]: > 500 µg/mL
- MIC99 [3]: 1 µg/mL (≈ 1.22 µM)

Structure (SMILES): CN[C@@H]1[C@H](O[C@H]2[C@H](O[C@H]3[C@H](O)[C@@H](O)[C@H](N=C(N)N)[C@@H](O)[C@@H]3N=C(N)N)O[C@@H](C)[C@]2(O)C=O)O[C@@H](CO)[C@H](O)[C@H]1O [STREPTOMYCIN]
- MIC99 [10, 18]: 0.1 µg/mL (≈ 0.172 µM)
- inhibition of growth at 0.1 µg/mL [13]: 100%
